Literature values in article PMC4621754, “Parasitic diarrheal disease: drug development and targets” (Frontiers in Microbiology, 2015).
Read-outs that look alike come from different tables or passages of the source.

Experiments:
E. histolytica PPi-PFK = system: E. histolytica PPi-PFK; parameters: method as in Reeves et al., 1974, 1976; conditions: ref Reeves et al., 1974, 1976
tubulin = system: tubulin; parameters: method as in Valdez et al., 2002; conditions: ref Valdez et al., 2002
[1] = system: methionine aminopeptidase type 2(MetAP2); parameters: method as in Molina et al., 2002; conditions: E. cuniculi; non-competitive, irreversible; ref Molina et al., 2002
[2] = system: Encephalitozoon spp. and E. bieneusi; parameters: method as in Bacchi and Weiss, 2004; conditions: in vitro; ref Bacchi and Weiss, 2004
human cells = conditions: ref Bendesky et al., 2002
I. belli = conditions: for cure of I. belli induced diarrhea: ref Trier et al., 1974, Syrkis et al., 1975, Butler and De Boer, 1981, Weiss et al., 1988
B. hominis [3] = system: B. hominis; parameters: method as in Nasirudeen et al., 2004; conditions: ref Nasirudeen et al., 2004
B. hominis [4] = system: B. hominis; parameters: method as in Van Hellemond et al., 2013; conditions: in comparison to metronidazole; ref Van Hellemond et al., 2013
E. intestinalis [5] = system: E. intestinalis; parameters: method as in Menotti et al., 2005; Pozio and Morales, 2005; conditions: tissue culture, ref Menotti et al., 2005, Pozio and Morales
E. intestinalis [6] = system: E. intestinalis; parameters: method as in Didier et al., 2006; conditions: in vitro; ref Didier et al., 2006
Carbamate kinase = system: Carbamate kinase; parameters: method as in Galkin et al., 2014; conditions: ref Galkin et al., 2014
giardiasis = system: giardiasis; parameters: method as in Galkin et al., 2014; conditions: mice; ref Galkin et al., 2014
[7] = parameters: method as in Diaz et al., 2003; conditions: intestinal infection caused by C. cayetanensis; ref Diaz et al., 2003
cryptosporidiosis = system: cryptosporidiosis; parameters: method as in Mead, 2002; Gargala, 2008; conditions: ref Mead, 2002, Gargala, 2008
microsporidia = system: microsporidia; parameters: method as in Didier et al., 2005; conditions: ref Didier et al., 2005
E. intestinalis [8] = conditions: ref John et al., 2005
[9] = system: Acyl-coenzyme-A synthetases; parameters: method as in Guo et al., 2014; conditions: cryptosporidial infection in mice; ref Guo et al., 2014

## O=P(O)(O)C(O)(Cn1ccnc1)P(=O)(O)O [CGP42446A]
E. histolytica PPi-PFK
  inhibition of PFK in E. histolytica: good inhibitors

## S=c1[nH]c2ccc(Cl)cc2[nH]1 [Compound 36, 5(6)-chloro-1H-benzimidazole-2-(3H)-thione]
G. lamblia; in vitro, ref Valdez et al., 2002
  IC50: 5 nM
E. histolytica; ref Valdez et al., 2002
  IC50: 5 nM
tubulin
  tubulin polymerization: inhibits tubulin polymerization

## CC(=O)Oc1ccccc1C(=O)Nc1nc2ccc([N+](=O)[O-])cc2s1 [Compound 39, 2-{[(6-Nitro-1,3-benzothiazol-2-yl)amino]carbonyl}phenyl acetate]
E. histolytica; ref Navarrete-Vazquez et al., 2011
  IC50: 297 nM
G. intestinalis; in vitro, ref Navarrete-Vazquez et al., 2011
  IC50: 3520 nM

## COC(=O)Nc1ncc([N+](=O)[O-])s1 [Compound 68, methyl 5-nitro-1,3-thiazol-2-ylcarbamate]
G. intestinalis; ref Nava-Zuazo et al., 2014
  IC50: 10 nM

## CCOC(=O)C(=O)Nc1ncc([N+](=O)[O-])s1 [Compound 69, ethyl [(5-nitro-1,3-thiazol-2-yl)amino](oxo)acetate]
G. intestinalis; ref Nava-Zuazo et al., 2014
  IC50: 6410 nM

## CO[C@@H]1[C@H](OC(=O)/C=C/C=C/C=C/C=C/C(=O)O)CC[C@]2(CO2)[C@H]1[C@@]1(C)O[C@@H]1CC=C(C)C [Fumagillin]
[1]
  MetAP2 inhibition: potent inhibitor
[2]
  activity against Encephalitozoon spp. and E. bieneusi: potent

## Cc1ncc([N+](=O)[O-])n1CCO [Metronidazole]
Human cells
  genotoxicity: genotoxic
I. belli
  cure of I. belli induced diarrhea: cure the I. belli induced diarrhea but to lesser extent
B. hominis [3]
  programmed cell death: induces programmed cell death

## NC[C@@H]1O[C@H](O[C@H]2[C@@H](O)[C@H](O[C@@H]3[C@@H](O)[C@H](N)C[C@H](N)[C@H]3O[C@H]3O[C@H](CO)[C@@H](O)[C@H](O)[C@H]3N)O[C@@H]2CO)[C@H](N)[C@@H](O)[C@@H]1O [Paramomycin, paromomycin]
B. hominis [4]
  performance against B. hominis infections: superior performance in comparison to metronidazole

## CC(C)c1nc(CN(C)C(=O)N[C@H](C(=O)N[C@@H](Cc2ccccc2)C[C@H](O)[C@H](Cc2ccccc2)NC(=O)OCc2cncs2)C(C)C)cs1 [Ritonavir]
E. intestinalis [5]
  growth of E. intestinalis: inhibited the growth

## CO[C@@H]1[C@H](OC(=O)NC(=O)CCl)CC[C@]2(CO2)[C@H]1[C@@]1(C)O[C@@H]1CC=C(C)C [TNP-470]
E. intestinalis [6]
  inhibition of E. intestinalis replication: more than 70%

## CCN(CC)C(=S)SSC(=S)N(CC)CC [disulfiram]
Carbamate kinase
  carbamate kinase inhibition: inhibits this enzyme
G. lamblia; ref Galkin et al., 2014
  effect on trophozoites: kills the trophozoites
giardiasis
  cure of giardiasis: cure of giardiasis in mice

## CC(C)(C)NC(=O)[C@@H]1CN(Cc2cccnc2)CCN1C[C@@H](O)C[C@@H](Cc1ccccc1)C(=O)N[C@H]1c2ccccc2C[C@H]1O [indinavir]
E. intestinalis [5]
  growth of E. intestinalis: inhibited the growth

## CC(=O)Oc1ccccc1C(=O)Nc1ncc([N+](=O)[O-])s1 [nitazoxanide]
[7]
  side effects: no severe side effects
cryptosporidiosis; immunocompetent patients
  efficacy in cryptosporidiosis: effective
cryptosporidiosis; immunocompromised patients
  efficacy in cryptosporidiosis: ineffective

## CCn1cc(C(=O)O)c(=O)c2cc(F)c(N3CCNCC3)cc21 [norfloxacin]
microsporidia
  antimicrosporidial activity: more than gatifloxacin (6), lomefloxacin (7), moxifloxacin (8), and nalidixic acid (9)

## CC1COc2c(N3CCN(C)CC3)c(F)cc3c(=O)c(C(=O)O)cn1c23 (stereo not drawn) [ofloxacin]
microsporidia
  antimicrosporidial activity: more than gatifloxacin (6), lomefloxacin (7), moxifloxacin (8), and nalidixic acid (9)

## CO[C@@H]1C(=O)CC[C@]2(CO2)[C@@]1(O)[C@@]1(C)O[C@@H]1CC=C(C)C [ovalicin]
E. intestinalis [6]
  inhibition of E. intestinalis replication: more than 70%

## O=[O+][O-] [ozone]
E. intestinalis [8]
  killing of E. intestinalis: kills

## CCS(=O)(=O)CCn1c([N+](=O)[O-])cnc1C [tinidazole]
I. belli
  cure of I. belli induced diarrhea: cure the I. belli induced diarrhea but to lesser extent

## CCC/C=C/C/C=C/C=C/C=N/NN=O [triacsin C]
[9]
  inhibition of acyl-coenzyme-A synthetases: inhibited

## sirimamycin
I. belli; when pyrimethamine-sulfadoxine fails, AIDS patients, ref Ferguson et al., 1980
  efficacy in I. belli intestinal infection: effective
